Consider twelve molecules from patent publication US20260092071A1, “COMPOUNDS AND COMPOSITIONS AS SMARCA2/4 DEGRADERS AND USES THEREOF” (REGENTS OF THE UNIVERSITY OF MICHIGAN, priority 2022, published 2026).

For one assay, the target named is SMARCA2 (Homo sapiens, UniProt P51531). Briefly: HiBit assay in engineered HT1080 CRISPR knock-in cell, 6 hrs (B series), SMARCA2. The class given is cell-based. As to conditions: 6 hrs incubation; for DC50: HT1080 CRISPR knock-in cells, read-out: SMARC A2 HT1080 HiBit DC50; for Dmax: HT-1080, HT1080 CRISPR knock-in cells, read-out: SMARC A2 HT1080 HiBit Dmax (%). The procedure, abridged:
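Protein abundance is measured in HiBiT-tagged HT1080 CRISPR knock-in cells after a 6 hr compound treatment (0.1% DMSO) by lytic Nano-Glo HiBiT luminescence.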
In general terms: HiBiT is a short tag that completes a luciferase, so light tracks the accessible tagged protein.

The next assay addresses SMARCA4 (Homo sapiens, UniProt P51532). Briefly: HiBit assay in engineered HT1080 CRISPR knock-in cell, 6 hrs (B series), SMARCA4. The class given is cell-based. As to conditions: 6 hrs incubation; for DC50: HT1080 CRISPR knock-in cells, read-out: SMARC A4 HT1080 HiBit DC50; for Dmax: HT-1080, HT1080 CRISPR knock-in cells, read-out: SMARC A4 HT1080 HiBit Dmax(%). The procedure, abridged: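 Compounds were dispensed first, then HT1080 knock-in cells added and incubated for 6 hrs at 37° C. Next, detection reagent containing LgBiT and lytic substrate was added. Plates were shaken 10 min and centrifuged, and luminescence was measured.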

SMILES strings stand for the structures.

SMARCA4, sequence (P51532 whole entry): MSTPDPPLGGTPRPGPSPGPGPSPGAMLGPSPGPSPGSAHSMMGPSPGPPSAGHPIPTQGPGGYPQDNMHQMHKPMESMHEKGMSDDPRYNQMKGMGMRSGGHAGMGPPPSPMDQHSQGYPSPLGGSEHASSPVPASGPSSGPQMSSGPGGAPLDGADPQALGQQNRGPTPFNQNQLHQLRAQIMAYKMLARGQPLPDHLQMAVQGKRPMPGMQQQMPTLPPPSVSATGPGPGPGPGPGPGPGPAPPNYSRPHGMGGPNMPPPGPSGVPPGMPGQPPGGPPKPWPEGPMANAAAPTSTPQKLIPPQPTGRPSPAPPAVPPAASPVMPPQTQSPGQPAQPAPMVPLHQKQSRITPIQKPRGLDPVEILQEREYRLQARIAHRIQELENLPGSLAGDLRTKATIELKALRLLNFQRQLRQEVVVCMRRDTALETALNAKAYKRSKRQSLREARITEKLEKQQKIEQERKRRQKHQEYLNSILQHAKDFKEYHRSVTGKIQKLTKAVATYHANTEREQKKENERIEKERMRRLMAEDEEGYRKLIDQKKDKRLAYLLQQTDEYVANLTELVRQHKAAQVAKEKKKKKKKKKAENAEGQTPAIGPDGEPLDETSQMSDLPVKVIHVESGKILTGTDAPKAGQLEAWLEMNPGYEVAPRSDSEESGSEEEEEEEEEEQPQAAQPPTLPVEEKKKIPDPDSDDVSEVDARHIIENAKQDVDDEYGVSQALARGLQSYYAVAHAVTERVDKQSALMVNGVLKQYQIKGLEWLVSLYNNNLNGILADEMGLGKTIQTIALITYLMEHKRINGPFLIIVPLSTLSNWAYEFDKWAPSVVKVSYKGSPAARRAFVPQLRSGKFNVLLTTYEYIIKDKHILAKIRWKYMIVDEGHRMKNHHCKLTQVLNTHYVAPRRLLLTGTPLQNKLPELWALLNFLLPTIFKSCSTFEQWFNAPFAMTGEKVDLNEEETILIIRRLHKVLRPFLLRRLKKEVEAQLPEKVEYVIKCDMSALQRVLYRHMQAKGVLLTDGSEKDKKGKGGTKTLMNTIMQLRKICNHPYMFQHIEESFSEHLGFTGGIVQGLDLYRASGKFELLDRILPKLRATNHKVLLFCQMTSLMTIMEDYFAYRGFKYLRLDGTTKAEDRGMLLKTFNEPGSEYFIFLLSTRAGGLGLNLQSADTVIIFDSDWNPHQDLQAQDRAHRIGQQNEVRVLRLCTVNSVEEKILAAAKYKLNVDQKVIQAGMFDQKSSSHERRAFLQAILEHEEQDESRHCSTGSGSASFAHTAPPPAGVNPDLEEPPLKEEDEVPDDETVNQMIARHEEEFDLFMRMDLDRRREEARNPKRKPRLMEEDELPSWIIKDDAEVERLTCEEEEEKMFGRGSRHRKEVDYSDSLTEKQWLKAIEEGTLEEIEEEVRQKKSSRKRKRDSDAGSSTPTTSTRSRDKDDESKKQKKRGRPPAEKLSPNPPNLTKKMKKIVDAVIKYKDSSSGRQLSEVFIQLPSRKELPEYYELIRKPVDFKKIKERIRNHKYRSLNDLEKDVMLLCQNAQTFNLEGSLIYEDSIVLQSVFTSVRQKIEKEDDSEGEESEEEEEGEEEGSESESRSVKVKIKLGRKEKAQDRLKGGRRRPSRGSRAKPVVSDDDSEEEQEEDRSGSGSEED
SMARCA2, sequence (P51531 whole entry): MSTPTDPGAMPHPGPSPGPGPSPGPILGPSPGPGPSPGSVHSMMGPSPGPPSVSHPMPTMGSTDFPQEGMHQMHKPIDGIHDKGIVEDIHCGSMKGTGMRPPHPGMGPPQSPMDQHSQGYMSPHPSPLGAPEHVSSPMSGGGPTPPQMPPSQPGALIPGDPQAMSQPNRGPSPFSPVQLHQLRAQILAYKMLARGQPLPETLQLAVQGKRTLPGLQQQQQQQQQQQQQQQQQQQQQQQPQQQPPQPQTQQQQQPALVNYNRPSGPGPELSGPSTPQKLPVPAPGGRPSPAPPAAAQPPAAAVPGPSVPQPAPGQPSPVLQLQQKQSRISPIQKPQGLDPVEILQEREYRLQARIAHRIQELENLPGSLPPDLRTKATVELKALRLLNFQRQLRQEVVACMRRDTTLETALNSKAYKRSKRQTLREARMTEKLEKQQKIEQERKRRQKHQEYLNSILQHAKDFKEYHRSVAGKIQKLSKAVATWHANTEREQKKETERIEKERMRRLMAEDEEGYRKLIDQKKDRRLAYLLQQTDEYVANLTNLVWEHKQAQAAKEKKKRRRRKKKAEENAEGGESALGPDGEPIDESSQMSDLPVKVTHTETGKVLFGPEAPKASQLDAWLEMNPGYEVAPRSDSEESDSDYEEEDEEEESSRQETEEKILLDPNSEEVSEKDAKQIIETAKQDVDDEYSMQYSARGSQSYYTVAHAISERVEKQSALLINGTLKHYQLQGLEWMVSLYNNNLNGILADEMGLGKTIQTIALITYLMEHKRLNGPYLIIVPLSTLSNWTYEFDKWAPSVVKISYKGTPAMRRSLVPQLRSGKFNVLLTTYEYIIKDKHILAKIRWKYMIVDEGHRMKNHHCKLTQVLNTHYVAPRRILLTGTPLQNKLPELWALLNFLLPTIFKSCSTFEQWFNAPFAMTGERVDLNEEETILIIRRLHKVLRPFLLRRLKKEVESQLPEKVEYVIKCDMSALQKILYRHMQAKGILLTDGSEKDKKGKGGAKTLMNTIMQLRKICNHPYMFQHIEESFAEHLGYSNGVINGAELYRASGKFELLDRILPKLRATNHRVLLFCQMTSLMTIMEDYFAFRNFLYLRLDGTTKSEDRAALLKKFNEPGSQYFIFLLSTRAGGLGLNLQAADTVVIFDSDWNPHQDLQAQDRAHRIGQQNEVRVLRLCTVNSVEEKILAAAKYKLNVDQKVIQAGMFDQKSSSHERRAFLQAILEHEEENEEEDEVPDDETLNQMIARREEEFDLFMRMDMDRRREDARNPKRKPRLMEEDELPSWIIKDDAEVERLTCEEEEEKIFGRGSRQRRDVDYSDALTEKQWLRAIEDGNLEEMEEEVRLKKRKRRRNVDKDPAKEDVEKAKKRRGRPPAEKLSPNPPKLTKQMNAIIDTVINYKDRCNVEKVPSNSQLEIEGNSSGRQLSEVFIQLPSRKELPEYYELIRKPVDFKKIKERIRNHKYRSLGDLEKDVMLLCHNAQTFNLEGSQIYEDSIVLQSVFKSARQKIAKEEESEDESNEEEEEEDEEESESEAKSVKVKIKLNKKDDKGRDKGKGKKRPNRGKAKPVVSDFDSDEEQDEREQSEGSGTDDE

Consider `Cc1ncsc1-c1ccc(CNC(=O)[C@@H]2C[C@@H](O)CN2C(=O)[C@@H](NC(=O)C2(F)CC2)C(C)(C)C)c(OCC2CCC(N3CCC(c4ccc5c(c4)-n4c(nc(=O)c6c(Cl)cccc64)C5(C)C)CC3)CC2)c1` (stereo partly drawn) [Compound B80, (2S,4R)-N-(2-((4-(4-(4-chloro-7,7-dimethyl-5-oxo-5,7-dihydroindolo[1,2-a]quinazolin-10-yl)piperidin-1-yl)cyclohexyl)methoxy)-4-(4-methylthiazol-5-yl)benzyl)-1-((S)-2-(1-fluorocyclopropane-1-carboxamido)-3,3-dimethylbutanoyl)-4-hydroxypyrrolidine-2-carboxamide], for which, on SMARCA2, the DC50 was below 100 nM and the Dmax was above 90%. Also, at SMARCA4, the DC50 is below 100 nM and the Dmax is above 90%.
On to `Cc1ncsc1-c1ccc([C@H](CC(=O)NCCCCN2CCC(c3ccc4c(c3)-n3c(nc(=O)c5c(Cl)cccc53)C4(C)C)CC2)NC(=O)[C@@H]2C[C@@H](O)CN2C(=O)[C@@H](NC(=O)C2(F)CC2)C(C)(C)C)cc1` [Compound B33, (2S,4R)—N—((S)-3-((4-(4-(4-chloro-7,7-dimethyl-5-oxo-5,7-dihydroindolo[1,2-a]quinazolin-10-yl)piperidin-1-yl)butyl)amino)-1-(4-(4-methylthiazol-5-yl)phenyl)-3-oxopropyl)-1-((S)-2-(1-fluorocyclopropane-1-carboxamido)-3,3-dimethylbutanoyl)-4-hydroxypyrrolidine-2-carboxamide], for which, at SMARCA2, the DC50 is above 1000 nM and the Dmax is below 50%. Also, at SMARCA4, the DC50 is above 1000 nM and the Dmax is below 50%.
With `Cc1ncsc1-c1ccc([C@H](C)NC(=O)[C@@H]2C[C@@H](O)CN2C(=O)[C@@H](NC(=O)CCN2CCC(c3ccc4c(c3)-n3c(nc(=O)c5c(Cl)cccc53)C4(C)C)CC2)C(C)(C)C)cc1` [Compound B43, (2S,4R)-1-((S)-2-(3-(4-(4-chloro-7,7-dimethyl-5-oxo-5,7-dihydroindolo[1,2-a]quinazolin-10-yl)piperidin-1-yl)propanamido)-3,3-dimethylbutanoyl)-4-hydroxy-N—((S)-1-(4-(4-methylthiazol-5-yl)phenyl)ethyl)pyrrolidine-2-carboxamide], at SMARCA2, the DC50 lay in the range of 100 to 500 nM and the Dmax was in the range of 50 to 69%. On SMARCA4, the DC50 was above 1000 nM and the Dmax was below 50%.
For `Cc1ncsc1-c1ccc([C@H](C)NC(=O)[C@@H]2C[C@@H](O)CN2C(=O)[C@@H](NC(=O)[C@H]2CC[C@H](CN3CCC(c4ccc5c(c4)C(C)(C)c4nc(=O)c6c(Cl)cccc6n4-5)CC3)CC2)C(C)(C)C)cc1` [Compound B1, (2S,4R)-1-((S)-2-((1r,4S)-4-((4-(4-chloro-7,7-dimethyl-5-oxo-5,7-dihydroindolo[1,2-a]quinazolin-9-yl)piperidin-1-yl)methyl)cyclohexane-1-carboxamido)-3,3-dimethylbutanoyl)-4-hydroxy-N—((S)-1-(4-(4-methylthiazol-5-yl)phenyl)ethyl)pyrrolidine-2-carboxamide] the same measures were below 100 nM, above 90%, below 100 nM and 50 to 69%.
For `Cc1ncsc1-c1ccc([C@H](C)NC(=O)[C@@H]2C[C@@H](O)CN2C(=O)[C@H](C(C)C)n2cc(C3CCN(CCN4CCC(c5ccc6c(c5)-n5c(nc(=O)c7c(Cl)cccc75)C6(C)C)CC4)CC3)nn2)cc1` [Compound B67, (2S,4R)-1-((S)-2-(4-(1-(2-(4-(4-chloro-7,7-dimethyl-5-oxo-5,7-dihydroindolo[1,2-a]quinazolin-10-yl)piperidin-1-yl)ethyl)piperidin-4-yl)-1H-1,2,3-triazol-1-yl)-3-methylbutanoyl)-4-hydroxy-N-((S)-1-(4-(4-methylthiazol-5-yl)phenyl)ethyl)pyrrolidine-2-carboxamide] the same measures were below 100 nM, above 90%, below 100 nM and 70 to 90%.
For `Cc1ncsc1-c1ccc([C@H](C)NC(=O)[C@@H]2C[C@@H](O)CN2C(=O)[C@H](C(C)C)n2cc(C3CCN(CCCN4CCC(c5ccc6c(c5)-n5c(nc(=O)c7c(Cl)cccc75)C6(C)C)CC4)CC3)nn2)cc1` [Compound B66, (2S,4R)-1-((S)-2-(4-(1-(3-(4-(4-chloro-7,7-dimethyl-5-oxo-5,7-dihydroindolo[1,2-a]quinazolin-10-yl)piperidin-1-yl)propyl)piperidin-4-yl)-1H-1,2,3-triazol-1-yl)-3-methylbutanoyl)-4-hydroxy-N—((S)-1-(4-(4-methylthiazol-5-yl)phenyl)ethyl)pyrrolidine-2-carboxamide] the same measures were below 100 nM, above 90%, below 100 nM and above 90%.
As for `Cc1ncsc1-c1ccc([C@H](C)NC(=O)[C@@H]2C[C@@H](O)CN2C(=O)[C@H](C(C)C)n2cc(CCCN3CCC(c4ccc5c(c4)C(C)(C)c4nc(=O)c6c(Cl)cccc6n4-5)CC3)nn2)cc1` [Compound B24, (2S,4R)-1-((S)-2-(4-(3-(4-(4-chloro-7,7-dimethyl-5-oxo-5,7-dihydroindolo[1,2-a]quinazolin-9-yl)piperidin-1-yl)propyl)-1H-1,2,3-triazol-1-yl)-3-methylbutanoyl)-4-hydroxy-N—((S)-1-(4-(4-methylthiazol-5-yl)phenyl)ethyl)pyrrolidine-2-carboxamide], the DC50 at SMARCA2 and on SMARCA4 was below 100 nM throughout. The Dmax on SMARCA2 and at SMARCA4 was above 90% each time.
Turning to `Cc1ncsc1-c1ccc(CNC(=O)[C@@H]2C[C@@H](O)CN2C(=O)[C@@H](NC(=O)C2(F)CC2)C(C)(C)C)c(OCCN2CCC(c3ccc4c(c3)-n3c(nc(=O)c5c(Cl)cccc53)C4(C)C)CC2)c1` [Compound B34, (2S,4R)-N-(2-(2-(4-(4-chloro-7,7-dimethyl-5-oxo-5,7-dihydroindolo[1,2-a]quinazolin-10-yl)piperidin-1-yl)ethoxy)-4-(4-methylthiazol-5-yl)benzyl)-1-((S)-2-(1-fluorocyclopropane-1-carboxamido)-3,3-dimethylbutanoyl)-4-hydroxypyrrolidine-2-carboxamide], at SMARCA2, the DC50 was below 100 nM and the Dmax was above 90%. Moreover, at SMARCA4, the DC50 was below 100 nM and the Dmax was above 90%.
Take `Cc1ncsc1-c1ccc(C(CN2CCOCC2)NC(=O)[C@@H]2C[C@@H](O)CN2C(=O)[C@@H](c2cc(O[C@H]3CC[C@H](CN4CCN(c5ccc6c(c5)-n5c(nc(=O)c7c(Cl)cccc75)C6(C)C)CC4)CC3)no2)C(C)C)cc1` (stereo partly drawn) [Compound B163, (2S,4R)-1-((R)-2-(3-(((11,4R)-4-((4-(4-chloro-7,7-dimethyl-5-oxo-5,7-dihydroindolo[1,2-a]quinazolin-10-yl)piperazin-1-yl)methyl)cyclohexyl)oxy)isoxazol-5-yl)-3-methylbutanoyl)-4-hydroxy-N-((R)-1-(4-(4-methylthiazol-5-yl)phenyl)-2-morpholinoethyl)pyrrolidine-2-carboxamide]: at SMARCA2, the DC50 was below 100 nM and the Dmax is above 90%. Further, at SMARCA4, the DC50 was below 100 nM and the Dmax was above 90%.
As for `Cc1cc(C(C(=O)N2C[C@H](O)C[C@H]2C(=O)N[C@@H](C)c2ccc(-c3scnc3C#CCOCCCN3CCC(c4cccc5c4C(C)(C)c4nc(=O)c6c(Cl)cccc6n4-5)CC3)cc2)C(C)C)on1` (stereo partly drawn) [Compound B145, (2S,4R)-N-((S)-1-(4-(4-(3-(3-(4-(4-chloro-7,7-dimethyl-5-oxo-5,7-dihydroindolo[1,2-a]quinazolin-8-yl)piperidin-1-yl)propoxy)prop-1-yn-1-yl)thiazol-5-yl)phenyl)ethyl)-4-hydroxy-1-(3-methyl-2-(3-methylisoxazol-5-yl)butanoyl)pyrrolidine-2-carboxamide], on SMARCA2, the DC50 lay within 100 to 500 nM and the Dmax is 70 to 90%. Also, on SMARCA4, the DC50 was 100 to 500 nM and the Dmax lay within 50 to 69%.
Consider `Cc1cc(C(C(=O)N2C[C@H](O)C[C@H]2C(=O)N[C@@H](CN2CCC(CN3CCC(c4cccc5c4C(C)(C)c4nc(=O)c6c(Cl)cccc6n4-5)CC3)CC2)c2ccc(-c3scnc3C)cc2)C(C)C)on1` (stereo partly drawn) [Compound B139, (2S,4R)—N—((R)-2-(4-((4-(4-chloro-7,7-dimethyl-5-oxo-5,7-dihydroindolo[1,2-a]quinazolin-8-yl)piperidin-1-yl)methyl)piperidin-1-yl)-1-(4-(4-methylthiazol-5-yl)phenyl)ethyl)-4-hydroxy-1-(3-methyl-2-(3-methylisoxazol-5-yl)butanoyl)pyrrolidine-2-carboxamide], for which the DC50 on SMARCA2 and at SMARCA4 was below 100 nM in each case. Besides, the Dmax was above 90% at SMARCA2 and 70 to 90% on SMARCA4.
On to `Cc1ncsc1-c1ccc([C@H](C)NC(=O)[C@@H]2C[C@@H](O)CN2C(=O)C(c2cc(OCCCCn3cc(-c4ccc5c(c4)C(C)(C)c4nc(=O)c6c(Cl)cccc6n4-5)cn3)no2)C(C)C)cc1` (stereo partly drawn) [Compound B99, (2S,4R)-1-(2-(3-(4-(4-(4-chloro-7,7-dimethyl-5-oxo-5,7-dihydroindolo[1,2-a]quinazolin-9-yl)-1H-pyrazol-1-yl)butoxy)isoxazol-5-yl)-3-methylbutanoyl)-4-hydroxy-N-((S)-1-(4-(4-methylthiazol-5-yl)phenyl)ethyl)pyrrolidine-2-carboxamide], for which the figures for the DC50 at SMARCA2 and on SMARCA4 were below 100 nM and above 1000 nM, respectively. Moreover, the Dmax is 50 to 69% on SMARCA2 and below 50% on SMARCA4.
